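Results reflect a 48-hour exposure of cells in 96-well plates to compound at five concentrations. Here, GI50 denotes the concentration required for 50% inhibition of growth.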 Active and inactive are the calls of the source. No stated cut-off is given here; in the data, active = GI50 up to about 1.1 µM and inactive = higher.
Legend:
Assay in all cases: NCI tumour cell line growth inhibition, 48 h
786-0 = test system: 786-0
A549 = test system: A549
BT-549 = test system: BT-549
CAKI-1 = test system: CAKI-1
COLO 205 = test system: COLO 205
EKVX = test system: EKVX
Hs-578T = test system: Hs-578T
K562 = test system: K562
MDA-MB-231 = test system: MDA-MB-231
MDA-MB-435 = test system: MDA-MB-435
Malme-3M = test system: Malme-3M
OVCAR-4 = test system: OVCAR-4
OVCAR-5 = test system: OVCAR-5
PC-3 = test system: PC-3
SF-295 = test system: SF-295
SNB-19 = test system: SNB-19
SNB-75 = test system: SNB-75
SW-620 = test system: SW-620
UACC-62 = test system: UACC-62
UO-31 = test system: UO-31

Measured: GI50

Cc1ccc2c(c1)SSSSS2
inactive: 786-0 15.8 µM | A549 20.4 µM | BT-549 19.8 µM | CAKI-1 21 µM | COLO 205 29.4 µM | EKVX 23.3 µM | Hs-578T 26.9 µM | K562 22.1 µM | MDA-MB-231 25.6 µM | MDA-MB-435 21 µM | Malme-3M 17.7 µM | OVCAR-4 18.3 µM | OVCAR-5 22.1 µM | PC-3 22.5 µM | SF-295 19.8 µM | SNB-19 20.6 µM | SNB-75 23.8 µM | SW-620 15.1 µM | UACC-62 18.3 µM | UO-31 16.3 µM

OCCN(/N=C\c1ccc2ccccc2c1)C1=NCCN1
inactive: 786-0 25.2 µM | A549 59.2 µM | BT-549 42.8 µM | COLO 205 17.9 µM | EKVX 40.5 µM | Hs-578T 36.1 µM | K562 14.4 µM | MDA-MB-231 12.8 µM | MDA-MB-435 16.9 µM | Malme-3M 15.6 µM | OVCAR-4 30.8 µM | OVCAR-5 24.2 µM | PC-3 24.9 µM | SF-295 31 µM | SNB-19 32.4 µM | SNB-75 20.7 µM | SW-620 21.1 µM | UACC-62 21.3 µM | UO-31 54.7 µM

CCOc1nc(-c2ccccc2)cc(-c2ccc(N3CCOCC3)cc2)c1C#N
inactive: 786-0 > 100 µM | A549 > 100 µM | BT-549 > 100 µM | CAKI-1 > 100 µM | COLO 205 > 100 µM | EKVX > 100 µM | Hs-578T > 100 µM | K562 > 100 µM | MDA-MB-231 > 100 µM | MDA-MB-435 > 100 µM | Malme-3M > 100 µM | OVCAR-4 > 100 µM | OVCAR-5 > 100 µM | PC-3 > 100 µM | SF-295 7.35 µM | SNB-19 > 100 µM | SNB-75 > 100 µM | SW-620 > 100 µM | UO-31 > 100 µM

CCc1cccc(C(C)C)c1NC(=O)C(=O)Nn1c(S)nc2ccccc2c1=O
inactive: 786-0 > 100 µM | A549 > 100 µM | BT-549 > 100 µM | CAKI-1 > 100 µM | EKVX 37.8 µM | Hs-578T > 100 µM | K562 > 100 µM | MDA-MB-231 76.2 µM | MDA-MB-435 > 100 µM | Malme-3M > 100 µM | OVCAR-4 > 100 µM | OVCAR-5 > 100 µM | PC-3 > 100 µM | SF-295 > 100 µM | SNB-75 > 100 µM | SW-620 > 100 µM | UACC-62 > 100 µM | UO-31 > 100 µM

Brc1ccc(C2C3CSc4ccccc4C3=NN2c2ccccc2)cc1 (stereo not given)
inactive: 786-0 > 100 µM | A549 56.9 µM | BT-549 > 100 µM | CAKI-1 41 µM | COLO 205 97.1 µM | Hs-578T > 100 µM | K562 77.4 µM | MDA-MB-231 > 100 µM | MDA-MB-435 > 100 µM | Malme-3M > 100 µM | OVCAR-4 7.62 µM | PC-3 43.8 µM | SNB-19 > 100 µM | SNB-75 69 µM | SW-620 34.7 µM | UACC-62 75.7 µM | UO-31 94.8 µM

CC1(C)OC(=O)N(c2ccccc2)C12C=Cc1cc([N+](=O)[O-])cc([N+](=O)[O-])c1O2 (stereo not given)
inactive: 786-0 > 100 µM | A549 > 100 µM | BT-549 > 100 µM | CAKI-1 > 100 µM | COLO 205 > 100 µM | EKVX 91.8 µM | Hs-578T 59.8 µM | K562 89.3 µM | MDA-MB-231 > 100 µM | MDA-MB-435 83.9 µM | OVCAR-4 92 µM | OVCAR-5 > 100 µM | PC-3 91.2 µM | SF-295 > 100 µM | SNB-19 > 100 µM | SNB-75 66.5 µM | SW-620 > 100 µM | UACC-62 61 µM | UO-31 34.2 µM

CCCCCC(/C=N/N)C(O)(C(F)(F)F)C(F)(F)F (stereo not given)
inactive: 786-0 2.97 µM | A549 4.91 µM | BT-549 4.04 µM | CAKI-1 2.47 µM | COLO 205 1.86 µM | EKVX 2.58 µM | Hs-578T 3.27 µM | MDA-MB-231 4.07 µM | MDA-MB-435 3.53 µM | Malme-3M 1.36 µM | OVCAR-4 5.35 µM | OVCAR-5 4.19 µM | PC-3 3.27 µM | SF-295 3.13 µM | SNB-19 4.08 µM | SNB-75 3.29 µM | SW-620 2.53 µM | UACC-62 3.9 µM
